Data from US10071983B2, “Activatable fluorogenic compounds and uses thereof as near infrared probes” (Ramot at Tel-Aviv University Ltd., priority 2011, dated 2018).
Where “and” joins values, the source holds several entries; their conditions need not be identical. Equal values may be shown once.

Assays:
HeLa cells [1] = experiment: Cell permeability, confocal imaging of HeLa cells; assay type: cell-based
Procedure: HeLa cells were incubated overnight with Compound 9 in PBS 7.4, and the cells was thereafter imaged by confocal microscope.
A colocalization assay of Compound 25 was conducted with the lysosome marker lysosensor. Sample was excited with a 561 nm laser line and fluorescence acquired from 570 nm to 800 nm.

[2] = Fluorescence quantum yield calculation against a reference dye; assay type: physicochemical; conditions: PBS 7.4
Procedure: Cresyl-violet-perchlorate (as presented hereinbelow) was chosen as a reference compound for the determination of QCy7 quantum yield.
(§1) FIG. 5 presents the data obtained for fluorescence intensity vs. wavelength of standard sample (Cresyl violet; FIG. 5A), and test sample (QCy7; FIG. 5B), at the indicated concentrations. The measurements were performed in a 1 cm cuvette using Fluoromax-3 fluorometer; at an excitation wavelength of 560 nm. Cresyl violet was dissolved in methanol and Compound 1 in PBS 7.4 (just generating QCy7).
Conversion to the absolute quantum yield is achieved through the following equation: ΦX=ΦST(GradX/GradST)(η^2X/η^2ST) where the subscripts ST and X denote standard and test respectively, Φ is the fluorescence quantum yield, Grad the gradient from the plot of integrated fluorescence intensity vs. absorbance (see, FIG. 6), and η the refractive index of the solvents. ΦCresyl-violet=0.55 [Stefan et al. ([…]) J. Phys. Chem. 86, 1738-1742].
QCy7 was chosen as a reference compound for the determination of Sulfo-QCy7 quantum yield.
(§2) FIG. 8 presents the data obtained for fluorescence intensity vs. wavelength of standard sample (QCy7; FIG. 8A), and test sample (Sulfo-QCy7, generated from Compound 9; FIG. 8B), at the indicated concentrations. The measurements were performed at a 96-wells plate reader using Fluoromax-3 fluorometer; at an excitation wavelength of 560 nm. Both samples were dissolved in PBS 7.4.
The absolute quantum yield was calculated as described hereinabove and found to be: […]

[3] = NIR fluorescence emission spectrum of dye compounds; assay type: physicochemical; conditions: for fluorescence emission peak in the NIR region: PBS 7.4; for λmax: Table 1, λmax (fluorescence emission)
Source text: (§3) Compound 1 (which generates the dye compound QCy7 deprotonation) was obtained as an orange crystalline powder. FIGS. 4A and 4B present the UV-Vis spectrum of Compound 1 (FIG. 4A), compared to that of the acetate Compound 3 (FIG. 4B). […] The obtained large stokes shift between the excitation and the emission wavelengths of about 150 nm is a desirable feature for fluorescence probes, which assists in increasing the signal-to-noise ratio.
as §1, §2

[4] = Extinction coefficient calculation (absorbance vs concentration); assay type: physicochemical
Source text: FIG. 7 presents linear plots of QCy7 as measured at 1 cm cuvette, at the indicated concentrations in PBS 7.4, at the maximum wavelength of QCy7 (560 nm). εQCy7=26848[M^−1cm^−1]
FIG. 10 presents linear plots of Sulfo-QCy7 as measured at 1 cm cuvette, at the indicated concentrations in PBS 7.4, at the maximum wavelength of Sulfo-QCy7 (590 nm). εSulfo-QCy7=52235[M^−1cm^−1]

[5] = NIR fluorescence emission spectrum of dye compounds; assay type: physicochemical; conditions: PBS 7.4 [50 μM], excitation 570 nm, cutting filter >690 nm
[6] = in methanol; Stefan et al. 1992; cited from earlier work
[7] = pKa measurement by UV-Vis absorbance as a function of pH; assay type: physicochemical; conditions: buffers at the indicated pH; 50 μM in buffers, phenol form
Procedure: The pKa values of exemplary compounds according to some embodiments of the present invention, Compounds 14, 18 and 25, was measured by monitoring their UV-Vis absorbance as a function of the environment pH. The tested compounds, at a concentration of 50 μM were dissolved in the respective buffers at the indicated pH and their absorbance was measured.

[8] = UV-Vis absorption spectrum of dye compounds; assay type: physicochemical
Source text: as §3
Compound 14 is composed from a phenol latent donor and two different acceptors; a picolinium moiety and an indolium moiety (see, Scheme 3). Deprotonation of the phenolic dye leads to formation of new donor-acceptor pair fluorochrome.
Compound 18 is composed of a phenol latent donor and two identical acceptors based on a picolinium moiety (see, Scheme 4). Deprotonation of the phenolic form leads to formation of new donor-acceptor pair fluorochrome.
Compound 25 is composed of a phenol latent donor and three acceptors; two picolinium moieties and one indolium moiety (see, Scheme 5). Deprotonation of the phenolic compound leads to formation of three resonance donor-two-acceptor structures of new fluorochrome.
The chemical 2D structures and spectroscopic data obtained for exemplary dye molecules according to embodiments of the present invention are presented in Table 1.

[9] = Aqueous stability in PBS 7.4 at 37° C., NIR emission over 72 hours; assay type: physicochemical; conditions: PBS 7.4 [25 μM]
Procedure: The aqueous stability of the cyanine-like dye compound presented herein was tested and compared to that of the cyanine molecule Cy7.
All tested compounds were incubated in PBS 7.4 [25 μM], at 37° C., and their NIR fluorescent emission was monitored over 72 hours. FIG. 15 presents the normalized intensity of NIR fluorescent emission of dyes generated from Compound 9 (green circles; Sulfo-QCy7), Compound 14 (blue diamonds), Compound 18 (red squares), Compound 25 (orange triangles) and Compound 1 (blank navy squares; QCy7) as a function of incubation time.

HeLa cells [10] = experiment: Two-photon excitation with NIR laser in HeLa cells; assay type: cell-based; conditions: incubated with HeLa cells and PBS 7.4
Procedure: Fluorescent dyes, which absorb at wavelengths of 350-550 nm, can be excited in NIR region with a two-photon laser.
Compound 25 was incubated with HeLa cells and PBS 7.4.

In the case of `CC1(C)C(/C=C/c2ccc(O)c(/C=C/C3=[N+](CCCS(=O)(=O)[O-])c4ccccc4C3(C)C)c2)=[N+](CCCS(=O)(=O)[O-])c2ccccc21` [Compound 9], the “fluorescence inside vs outside the cells” value (HeLa cells [1]; HeLa cells incubated overnight, PBS 7.4) is reported as “higher fluorescence inside the cells”, the quantum yield [2] is reported as 16% and the “fluorescence emission peak in the NIR region” value [3] is reported as 720 nm. The λmax [3] was 710 nm, the “extinction coefficient ε” value ([4]; PBS 7.4, 1 cm cuvette, at maximum wavelength (QCy7 560 nm, Sulfo-QCy7 590 nm)) was 52235 M⁻¹ cm⁻¹ and the extinction coefficient ([4]; rounded value) was 52,000 mol^−1 cm^−1. The “appearance under NIR imaging camera” value [5] was “exhibits well-observed NIR fluorescence”.

In the case of `N=c1cc2oc3cc(N)ccc3nc-2c2ccccc12.[O-][Cl+3]([O-])([O-])O` [Cresyl-violet, Cresyl-violet-perchlorate], the “fluorescence quantum yield of reference” value [6] is listed as 0.55.

For `C[n+]1ccc(/C=C/c2cc(/C=C/C3=[N+](CCCS(=O)(=O)O)c4ccccc4C3(C)C)cc(/C=C/c3cc[n+](C)cc3)c2O)cc1` [Compound 25], the pKa [7] was 5.4, the “cellular localization (colocalization with lysosensor)” value (HeLa cells [1]; HeLa cells, excitation 561 nm, 570-800 nm) was “accumulation of the dye in the lisosomal vesicles indicates cell-penetration through endocytosis mechanism” and the “chemical stability in cell-medium” value (HeLa cells [1]; overnight incubation with cells) was “chemical stability after overnight in cell-medium”. For the same compound, the “NIR fluorescence under acidic condition of the lysosome” value (HeLa cells [1]; pH of about 5) was “emitted NIR fluorescence even under the acidic condition of the lysosome”, the quantum yield [2] was 16% and the “UV-Vis absorption peak maximum” value ([8]; PBS 7.4) was 330 nm and 550 nm. The λmax ([8]; Table 1, first λmax column (absorption peaks)) was 550 nm, the “aqueous stability compared with Cy7” value [9] was “increase aqueous stability than that of Cy7” and the “two-photon excitation spectrum wavelengths” value (HeLa cells [10]) was 800-1000 nm. For the same compound, the “fluorescence emission peak in the NIR region” value [3] was 680 nm and the λmax [3] was 650 nm.
